Source: patent US20240082342A1, “PEPTIDE THERAPEUTICS FOR INCREASING LUNG CELL VIABILITY” (BOARD OF REGENTS, THE UNIVERSITY OF TEXAS SYSTEM, priority 2018, published 2024)
Entries after “also recorded” stand apart in the source; their conditions may differ.

Experiments:
WT mice with CS-LI = test: Chronic CS/TSE lung injury in WT mice treated by nebulization or IP injection; assay type: in vivo, mouse; settings: for lung volume (μCT): 20 weeks CS
Protocol: Pulmonary function tests were performed immediately before CT imaging and before mice were killed, as previously described (DeCologne N et al., Eur Respir J. 35:176-85, 2010). Briefly, mice were anesthetized with a ketamine/xylazine mixture. Anesthetized mice were intubated by inserting a sterile, 20-gauge intravenous cannula through the vocal cords into the trachea. Elastance, compliance, and total lung resistance were then measured (SCIREQ, Tempe, AZ). The “snapshot perturbation method” was used to study lung function in the CBB injury model. This method measures total lung resistance, compliance, and elastance of the entire respiratory system. Increased total lung resistance in the CBB model may reflect lung contraction associated with pleural rind formation with concurrent distortion of the airways. The flexiVent was set to a tidal volume of […] at a frequency of 150 breaths/min against 2-3 cm H2O positive end-expiratory pressure, according to manufacturer's specifications. The mice were maintained under anesthesia using isofluorane throughout the pulmonary function testing.
After ketamine/xylazine injection, mice were anesthetized further using an isoflurane/02 mixture to ensure that mice remained deeply anesthetized and to minimize spontaneous breaths. The Explore Locus Micro-CT Scanner (General Electric, GE Healthcare, Wauwatosa, WI) was used for CT imaging. CT scans were performed during full inspiration and at a resolution of […]. Lung volumes were calculated from lung renditions collected at full inspiration. Microview software was used to analyze lung volumes and render three-dimensional images (Tucker T A et al., Am J Respir Cell Mol Biol. 50:316-27, 2014).
Wild type (WT) mice of the C57BL/6J strain (n=10/group) were kept in ambient air or were TSE for 4 hour/day, 5 days a week as described. […]
Micro-computed Tomography (pCT) scanning and measurements of lung volume and pulmonary function. […] Lung volumes were calculated from lung renditions collected at full inspiration using Microview software. […]

[1] = test system: AT2 cells from COPD lung tissues; test: AT2 cells isolated from COPD lung tissues treated in vitro; assay type: cell-based, human
Protocol: Ex vivo studies using human lung tissues without patient identity was approved by the Institutional (UTHSCT) Review Board (IRB) through exempt protocol #12-003. nL and COPD tissues (n=4-5) were treated with or without CSP7 for 72 h ex vivo as described previously (Marudamuthu et al, 2019). Total protein and RNA extracted from the lung tissues were analyzed by Western blotting and qPCR for MUC5AC protein and mRNA, respectively. In separate experiments, AT2 cells isolated from nL and COPD lungs were treated with CSP7 or CP and immunoblotted for changes in senescence or apoptosis, p53, PAI-1 and SP-C expression. Similarly, nL and COPD tissues were treated with or without CSP7 or CP for 72 h ex vivo and AT2 cells isolated from these tissues were analyzed for senescence or apoptosis, p53, PAI-1 and SP-C.

[2] = AT2 cells from COPD tissue, in vitro

## WGIDKAFFTTSTVTYKWFRY [CP, scrambled control peptide with the same amino acid composition as CSP, reference compound]
WT mice with CS-LI
  lung volume (μCT): persistently high lung volumes
[1]; [2]
  p53 and apoptosis: remained elevated

## FTTFTVT (listed as Homo sapiens) [CSP7, heptapeptide fragment of the caveolin-1 scaffolding domain peptide CSP]
WT mice with CS-LI
  lung volume (μCT): significantly improved
WT mice with CS-LI; IP or Neb, 20 weeks TSE/CS
  lung volume, compliance, elastance and resistance: reduced lung volume, compliance, elastance and resistance; also recorded: trend of reversal; also recorded: significantly improved
[1]; [2]
  SP-C level: restored baseline SP-C level
  p53 and apoptosis: marked suppression of p53 and apoptosis
[1]; subjects without COPD
  response of AT2 cells from nL tissues: failed to respond to CSP7 treatment
